# In patent US20120129875A1, “SUBSTITUTED QUINAZOLINES AS FUNGICIDES” (SYNGENTA CROP PROTECTION, LLC, priority 2009, published 2012):
# Test system: Phaeosphaeria nodorum (Septoria nodorum)
# Test: Phaeosphaeria nodorum (Septoria nodorum) / wheat / leaf disc preventative (glume blotch)
# Type: in vivo
# Details: Parastagonospora nodorum, foliar, wheat leaf segments cv. Kanzler on agar, inoculated 2 days after application, vs untreated control, read-out: disease control
# Method: Phaeosphaeria nodorum (Septoria nodorum)/Wheat/Leaf Disc Preventative (Glume Blotch) Wheat leaf segments cv. Kanzler are placed on agar in a multiwell plate (24-well format) and sprayed with the formulated test compound diluted in water. The leaf disks are inoculated with a spore suspension of the fungus 2 days after application. The inoculated test leaf disks are incubated at 20° C. and 75% rh under a light regime of 12 h light/12 h darkness in a climate cabinet and the activity of a compound is assessed as percent disease control compared to untreated when an appropriate level of disease damage appears in untreated check leaf disks (5-7 days after application).
row,Compound,pest or weed control at 200 ppm [%]
1,COc1cccc(OC)c1-c1cccc(-c2ncc3ccccc3n2)n1 [2/113],≥ 80
2,Fc1ccc(Cc2cccc(-c3ncc4ccccc4n3)n2)c(F)c1F [6/28],≥ 80
3,Cc1ccc(-c2ncc3ccccc3n2)nc1-c1c(F)cccc1F [3/105],≥ 80
4,O=Cc1ccc(-c2cccc(-c3ncc4ccccc4n3)n2)c(F)c1F [2/111],≥ 80
5,Fc1c(Cl)cccc1Cc1cccc(-c2ncc3ccccc3n2)n1 [6/22],≥ 80
6,COc1cc(-c2nc(-c3ncc4ccccc4n3)ccc2C)cc(OC)c1OC [3/110],≥ 80
7,OCc1cc2ccccc2cc1-c1cccc(-c2ncc3ccccc3n2)n1 [2/116],≥ 80
8,Fc1ccc(Br)c(Cc2cccc(-c3ncc4ccccc4n3)n2)c1 [6/34],≥ 80
9,COc1ccc(-c2cccc(-c3ncc4ccccc4n3)n2)cc1F [2/57],≥ 80
10,c1ccc(CCc2cccc(-c3ncc4ccccc4n3)n2)cc1 [10/17],≥ 80
11,c1ccc(Oc2cccc(-c3ncc4ccccc4n3)n2)cc1 [4/24],≥ 80
12,CCc1ccc(-c2nc(-c3ncc4ccccc4n3)ccc2C)cc1 [3/131],≥ 80
13,COc1cc(-c2cccc(-c3ncc4ccccc4n3)n2)c(OC)cc1C [2/121],≥ 80
14,COc1ccc2nc(-c3ccc(C)c(-c4ccccc4)n3)ncc2c1 [11/19],≥ 80
15,CC(=O)c1ccccc1-c1cccc(-c2ncc3ccccc3n2)n1 [2/105],≥ 80
16,Fc1ccc(Cc2cccc(-c3ncc4ccccc4n3)n2)c(Cl)c1 [6/20],≥ 80
17,Cc1ccc(-c2ncc3ccc(Cl)cc3n2)nc1-c1ccccc1 [11/11],≥ 80
18,Cc1ccc(-c2ncc3ccccc3n2)nc1-c1ccccc1N [3/102],≥ 80
19,COc1cc(F)c(F)cc1-c1cccc(-c2ncc3ccccc3n2)n1 [2/128],≥ 80
20,Cc1c(Cl)cccc1-c1cccc(-c2ncc3ccccc3n2)n1 [2/126],≥ 80
21,Cc1ccc(-c2ncc3ccccc3n2)nc1/C=C/c1ccccc1 [10/23],≥ 80
22,C(=C\c1cccc(-c2ncc3ccccc3n2)n1)/c1ccccc1 [10/20],≥ 80
23,COc1ccc(-c2nc(-c3ncc4ccccc4n3)ccc2OC)cc1 [14/3],≥ 80

row,Compound,pest or weed control at 200 ppm [%]
1,Cc1ccc(-c2ncc3ccccc3n2)nc1-c1ccc2ccccc2c1 [3/106],≥ 80
2,O=Cc1c(F)ccc(-c2cccc(-c3ncc4ccccc4n3)n2)c1F [2/110],≥ 80
3,COc1cc(F)c(-c2cccc(-c3ncc4ccccc4n3)n2)c(F)c1 [2/131],≥ 80
4,Cc1ccc(-c2ncc3cccc(Cl)c3n2)nc1-c1ccccc1 [11/13],≥ 80
5,Fc1ccc(Cc2cccc(-c3ncc4ccccc4n3)n2)cc1F [6/24],≥ 80
6,Cc1c(F)cccc1-c1cccc(-c2ncc3ccccc3n2)n1 [2/124],≥ 80
7,Cc1ccc(-c2nc(C)c3cccc(C)c3n2)nc1-c1ccccc1 [11/16],≥ 80
8,CCc1nc(-c2cccc(Cc3ccccc3)n2)nc2ccccc12 [12/15],≥ 80
9,COC(=O)c1ccc(-c2nc(-c3ncc4ccccc4n3)ccc2C)cc1 [3/103],≥ 80
10,COc1ccc(OC)c(Cc2cccc(-c3ncc4ccccc4n3)n2)c1 [6/43],≥ 80
11,Fc1cccc(F)c1-c1cccc(-c2ncc3ccccc3n2)n1 [2/104],≥ 80
12,COC(=O)Nc1ccc(Cc2cccc(-c3ncc4ccccc4n3)n2)cc1 [6/39],≥ 80
13,OCc1c(-c2cccc(-c3ncc4ccccc4n3)n2)ccc2ccccc12 [2/115],≥ 80
14,Cc1ccc(-c2ncc3c(C)cccc3n2)nc1-c1ccccc1 [11/18],≥ 80
15,OCc1nc(-c2cccc(Cc3ccccc3)n2)nc2ccccc12 [12/16],≥ 80
16,Cc1ccccc1Cc1nc(-c2ncc3ccccc3n2)ccc1C [7/20],≥ 80
17,N#Cc1ccccc1-c1cccc(-c2ncc3ccccc3n2)n1 [2/61],≥ 80
18,COc1cccc(Cc2cccc(-c3ncc4ccccc4n3)n2)c1OC [6/30],≥ 80
19,Fc1cc(Br)ccc1Cc1cncc(-c2ncc3ccccc3n2)c1 [6/35],≥ 80
20,Cc1ccc(-c2nc(C)c3cccc(Cl)c3n2)nc1-c1ccccc1 [11/14],≥ 80
21,C(=C/c1cccc(-c2ncc3ccccc3n2)n1)/c1ccccc1 [10/21],≥ 80
22,COc1ccc(-c2ncc3ccccc3n2)nc1-c1ccccc1 [14/4],≥ 80
23,Cc1ccc(-c2ncc3ccccc3n2)nc1-c1ccc(Cl)c(F)c1Cl [3/138],≥ 80

row,Compound,pest or weed control at 200 ppm [%]
1,Cc1ccc(-c2ncc3ccccc3n2)nc1-c1cccc(C#N)c1 [3/132],≥ 80
2,Cc1cc(-c2cccc(-c3ncc4ccccc4n3)n2)c(C)cc1F [2/133],≥ 80
3,CCOc1ccc(-c2nc(-c3ncc4ccccc4n3)ccc2C)cc1 [3/107],≥ 80
4,COC(=O)c1cccc(-c2nc(-c3ncc4ccccc4n3)ccc2C)c1 [3/123],≥ 80
5,N#Cc1c(Cl)cccc1Cc1cccc(-c2ncc3ccccc3n2)n1 [6/33],≥ 80
6,O=[N+]([O-])c1ccccc1-c1cccc(-c2ncc3ccccc3n2)n1 [2/112],≥ 80
7,CC(=O)c1ccc(-c2nc(-c3ncc4ccccc4n3)ccc2C)cc1 [3/118],≥ 80
8,Cc1ccc(-c2nc(-c3ncc4ccccc4n3)ccc2C)cc1[N+](=O)[O-] [3/120],≥ 80
9,CC(=O)c1ccccc1-c1nc(-c2ncc3ccccc3n2)ccc1C [3/108],≥ 80
10,CCCCc1nc(-c2cccc(Cc3ccccc3)n2)nc2ccccc12 [12/5],≥ 80
11,COc1ccc(C=O)cc1-c1cccc(-c2ncc3ccccc3n2)n1 [2/125],≥ 80
12,Cc1ccc(-c2ncc3ccccc3n2)nc1-c1ccc(CC#N)cc1 [3/126],≥ 80
13,COc1ccccc1Cc1nc(-c2ncc3ccccc3n2)ccc1C [7/21],≥ 80
14,COc1cc(F)c(F)cc1-c1nc(-c2ncc3ccccc3n2)ccc1C [3/137],≥ 80
15,Clc1ccc(Cc2cccc(-c3ncc4ccccc4n3)n2)cc1Cl [6/27],≥ 80
16,Clc1cccc(-c2cccc(-c3ncc4ccccc4n3)n2)c1Cl [2/50],≥ 80
17,Cc1cc(C)c(Cc2cccc(-c3ncc4ccccc4n3)n2)c(C)c1 [6/40],≥ 80
18,CCOCc1ccc(-c2nc(-c3ncc4ccccc4n3)ccc2C)cc1 [3/142],≥ 80
19,COc1cccc(OC)c1-c1nc(-c2ncc3ccccc3n2)ccc1C [3/135],≥ 80
20,Cc1ccc(C)c(Cc2cccc(-c3ncc4ccccc4n3)n2)c1 [6/41],≥ 80
21,COC(=O)c1ccccc1-c1nc(-c2ncc3ccccc3n2)ccc1C [3/128],≥ 80
22,Cc1ccc(-c2ncc3ccccc3n2)nc1/C=C\c1ccccc1 [10/22],≥ 80
23,CCCc1ccc(-c2nc(-c3ncc4ccccc4n3)ccc2C)cc1 [3/114],≥ 80

row,Compound,pest or weed control at 200 ppm [%]
1,COCCOc1nc(-c2cccc(Cc3ccccc3)n2)nc2ccccc12 [12/10],≥ 80
2,Clc1ccc(Cc2cccc(-c3ncc4ccccc4n3)n2)c(Cl)c1 [6/37],≥ 80
3,Cc1ccc(-c2ncc3ccccc3n2)nc1-c1ccc(CO)cc1 [3/139],≥ 80
4,COc1ccc(-c2ncc3ccccc3n2)nc1-c1ccc(C)cc1 [14/2],≥ 80
5,Cc1ccc(-c2ncc3cccc(C)c3n2)nc1-c1ccccc1 [11/15],≥ 80
6,COC(=O)c1ccccc1-c1cccc(-c2ncc3ccccc3n2)n1 [2/130],≥ 80
7,Cc1ccc(-c2ncc3ccccc3n2)nc1-c1cccc(-c2ccccc2)c1 [3/134],≥ 80
8,c1cc(-c2ncc3ccccc3n2)nc(-c2cc3ccccc3c3ccccc23)c1 [2/119],≥ 80
9,Fc1cc(F)c(F)c(Cc2cccc(-c3ncc4ccccc4n3)n2)c1 [6/29],≥ 80
10,COc1ccc2nc(-c3ccc(C)c(-c4ccccc4)n3)nc(C)c2c1 [11/20],≥ 80
11,Cc1ccc(-c2ncc3ccccc3n2)nc1-c1cccc(Cl)c1 [3/109],≥ 80
12,Cc1ccc(-c2cccc(-c3ncc4ccccc4n3)n2)c2ccccc12 [2/108],≥ 80
13,COc1ccc(Cc2cccc(-c3ncc4ccccc4n3)n2)c(Cl)c1Cl [6/23],≥ 80
14,Cc1ccc(-c2ncc3ccccc3n2)nc1-c1ccc(Cl)cc1C(F)(F)F [3/129],≥ 80
15,Fc1cc(F)c(-c2cccc(-c3ncc4ccccc4n3)n2)c(F)c1 [2/132],≥ 80
16,Cc1ccc2cnc(-c3ccc(C)c(-c4ccccc4)n3)nc2c1 [11/12],≥ 80
17,CC(C)Oc1nc(-c2cccc(Cc3ccccc3)n2)nc2ccccc12 [12/9],≥ 80
18,Cc1ccc(Cc2cccc(-c3ncc4ccccc4n3)n2)c(C)c1 [6/38],≥ 80
19,Cc1ccc(-c2nc(C)c3c(C)cccc3n2)nc1-c1ccccc1 [11/21],≥ 80
20,COc1ccc(-c2ncc3ccccc3n2)nc1-c1ccc(F)cc1 [14/5],≥ 80
21,N#Cc1ccccc1Cc1cccc(-c2ncc3ccccc3n2)n1 [6/32],≥ 80
